Values joined by “and” are separate entries in the source; they are usually repeats but may differ in a detail not shown here. Equal entries are not always repeated. Where two headings read alike, the source gives them in different places.
What was measured:
M5 muscarinic receptor = molecular target: T1, M5 muscarinic receptor (Homo sapiens, UniProt P08912); experiment: R-SAT functional receptor assay, M5; format: cell-based; conditions: for Emax: read-out: % Efficacy M5; for % Efficacy M5: relative to full agonist carbachol
T1 construct: expressed in transfected cells
T1 sequence (P08912 1-532): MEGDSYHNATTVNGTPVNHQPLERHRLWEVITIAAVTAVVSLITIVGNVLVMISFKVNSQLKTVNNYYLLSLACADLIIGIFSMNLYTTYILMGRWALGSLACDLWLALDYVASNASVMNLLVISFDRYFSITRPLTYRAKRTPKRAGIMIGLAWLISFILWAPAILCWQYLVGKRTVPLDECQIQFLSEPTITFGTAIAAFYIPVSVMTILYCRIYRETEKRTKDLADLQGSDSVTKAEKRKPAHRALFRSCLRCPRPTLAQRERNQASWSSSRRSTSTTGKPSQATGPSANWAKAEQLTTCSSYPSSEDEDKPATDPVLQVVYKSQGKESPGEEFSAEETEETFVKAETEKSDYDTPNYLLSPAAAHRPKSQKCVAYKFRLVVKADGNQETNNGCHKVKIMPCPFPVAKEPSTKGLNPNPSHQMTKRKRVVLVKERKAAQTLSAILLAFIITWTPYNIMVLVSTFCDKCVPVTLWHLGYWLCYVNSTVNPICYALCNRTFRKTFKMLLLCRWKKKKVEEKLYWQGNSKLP

[1] = tested on: hippocampal MAP kinase (MAPK) activity in CA1 pyramidal neurons; experiment: hippocampal MAP kinase activation assay after parenteral administration; format: in vivo, C57BL6 mice
[2] = molecular target: T2, human M1 muscarinic receptors (Homo sapiens, UniProt P11229); conditions: R-SAT; relative to full agonist carbachol; ± standard deviation
T2 sequence (P11229 whole entry): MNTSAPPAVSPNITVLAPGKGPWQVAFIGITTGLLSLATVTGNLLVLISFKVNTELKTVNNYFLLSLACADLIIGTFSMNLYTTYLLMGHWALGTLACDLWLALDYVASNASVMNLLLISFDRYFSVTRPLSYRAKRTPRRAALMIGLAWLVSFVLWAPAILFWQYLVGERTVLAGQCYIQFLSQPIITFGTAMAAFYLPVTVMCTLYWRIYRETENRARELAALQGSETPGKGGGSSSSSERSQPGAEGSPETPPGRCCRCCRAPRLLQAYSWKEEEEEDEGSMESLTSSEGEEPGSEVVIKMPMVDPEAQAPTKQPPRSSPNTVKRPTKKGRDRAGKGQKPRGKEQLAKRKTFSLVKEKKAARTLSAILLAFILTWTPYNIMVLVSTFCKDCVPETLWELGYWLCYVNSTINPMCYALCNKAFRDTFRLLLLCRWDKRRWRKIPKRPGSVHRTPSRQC

[3] = molecular target: T2, human M1 muscarinic receptors; conditions: PI hydrolysis; ± standard deviation
[4] = molecular target: T2, human M1 muscarinic receptors; experiment: cell-based; conditions: ± standard deviation
M4 muscarinic receptor [5] = molecular target: T3, M4 muscarinic receptor (Homo sapiens, UniProt P08173); experiment: cell-based; conditions: read-out: % Efficacy M4
T3 sequence (P08173 1-479): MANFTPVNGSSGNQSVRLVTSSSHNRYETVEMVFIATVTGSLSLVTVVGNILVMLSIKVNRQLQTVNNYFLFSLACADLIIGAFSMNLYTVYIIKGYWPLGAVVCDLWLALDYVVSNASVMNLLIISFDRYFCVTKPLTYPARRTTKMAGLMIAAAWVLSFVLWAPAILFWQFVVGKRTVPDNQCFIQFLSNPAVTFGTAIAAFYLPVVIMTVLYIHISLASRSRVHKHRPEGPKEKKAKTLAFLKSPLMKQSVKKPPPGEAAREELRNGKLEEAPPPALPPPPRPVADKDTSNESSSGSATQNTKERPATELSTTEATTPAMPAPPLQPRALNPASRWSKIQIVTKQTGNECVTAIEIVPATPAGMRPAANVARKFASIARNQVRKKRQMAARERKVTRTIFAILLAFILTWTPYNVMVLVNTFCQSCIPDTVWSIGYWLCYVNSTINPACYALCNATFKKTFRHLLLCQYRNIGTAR

[6] = molecular target: T2, human M1 muscarinic receptors; experiment: cell-based
M2 muscarinic receptor = molecular target: T4, M2 muscarinic receptor (Homo sapiens, UniProt P08172); experiment: R-SAT functional receptor assay, M2; conditions: for Emax: read-out: % Efficacy M2
T4 sequence (P08172 1-466): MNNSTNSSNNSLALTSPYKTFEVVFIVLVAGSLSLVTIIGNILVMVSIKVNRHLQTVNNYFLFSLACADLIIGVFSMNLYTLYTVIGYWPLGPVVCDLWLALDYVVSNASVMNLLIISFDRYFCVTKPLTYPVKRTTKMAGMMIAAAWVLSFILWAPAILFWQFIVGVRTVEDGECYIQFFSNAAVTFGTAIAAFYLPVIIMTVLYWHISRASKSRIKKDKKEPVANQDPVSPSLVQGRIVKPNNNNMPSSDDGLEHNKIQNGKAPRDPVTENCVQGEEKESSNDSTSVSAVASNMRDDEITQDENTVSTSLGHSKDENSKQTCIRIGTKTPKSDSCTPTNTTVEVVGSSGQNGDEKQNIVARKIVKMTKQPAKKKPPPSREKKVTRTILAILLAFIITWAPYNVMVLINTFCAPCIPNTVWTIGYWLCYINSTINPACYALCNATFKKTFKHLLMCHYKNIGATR

M3 muscarinic receptor = M3 muscarinic receptor (Homo sapiens, UniProt P20309); experiment: R-SAT functional receptor assay, M3; conditions: for Emax: read-out: % Efficacy M3
M3 muscarinic receptor, sequence (P20309 whole entry): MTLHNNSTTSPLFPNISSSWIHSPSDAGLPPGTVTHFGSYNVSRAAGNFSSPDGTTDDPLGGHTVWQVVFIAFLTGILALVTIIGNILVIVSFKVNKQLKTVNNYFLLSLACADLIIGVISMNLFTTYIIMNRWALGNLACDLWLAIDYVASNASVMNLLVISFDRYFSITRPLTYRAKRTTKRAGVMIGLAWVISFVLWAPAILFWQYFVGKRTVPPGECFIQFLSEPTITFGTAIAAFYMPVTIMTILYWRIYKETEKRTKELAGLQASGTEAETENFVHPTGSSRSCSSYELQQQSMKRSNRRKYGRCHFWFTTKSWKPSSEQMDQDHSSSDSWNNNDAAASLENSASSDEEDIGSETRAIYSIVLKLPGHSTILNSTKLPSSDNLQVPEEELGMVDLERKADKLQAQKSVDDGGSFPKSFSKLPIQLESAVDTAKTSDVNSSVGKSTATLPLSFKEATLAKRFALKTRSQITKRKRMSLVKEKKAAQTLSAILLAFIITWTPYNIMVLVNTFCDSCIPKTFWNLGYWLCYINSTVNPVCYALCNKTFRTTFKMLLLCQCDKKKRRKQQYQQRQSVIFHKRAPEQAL

M4 muscarinic receptor [7] = molecular target: T3, M4 muscarinic receptor; conditions: R-SAT; relative to full agonist carbachol; ± standard deviation

| Structure (SMILES) | Emax (M5 muscarinic receptor) [%] | Emax (M4 muscarinic receptor [5]) [%] | Emax (M2 muscarinic receptor) [%] | Emax (M3 muscarinic receptor) [%] | % Efficacy M5 (M5 muscarinic receptor; R-SAT, ± standard deviation) | further results |
| --- | --- | --- | --- | --- | --- | --- |
| Cc1cc2c(s1)Nc1ccccc1N=C2N1CCN(C)CC1 [Olanzapine, olanzapine] |  |  |  |  | no response | % Efficacy M4 (M4 muscarinic receptor [7]): no response; % Efficacy M2 (M2 muscarinic receptor; R-SAT, relative to full agonist carbachol, ± standard deviation): no response |
| C[N+](C)(C)CCOC(N)=O [Carbachol, carbachol] | 105 ± 3 | 96 ± 3 |  |  |  |  |
| CN1CCN(C2=Nc3cc(Cl)ccc3Nc3ccccc32)CC1 [Clozapine, clozapine] |  | 49 ± 6 | 57 ± 4 |  | no response |  |

More lines, main results first:

| Emax (M5 muscarinic receptor) [%] | Emax (M4 muscarinic receptor [5]) [%] | Emax (M2 muscarinic receptor) [%] | Emax (M3 muscarinic receptor) [%] | Structure (SMILES) | % Efficacy M5 (M5 muscarinic receptor; R-SAT, ± standard deviation) | further results |
| --- | --- | --- | --- | --- | --- | --- |
| 66 ± 4 | 88 ± 3 | 78 ± 7 | 19 ± 3 | Clc1ccc2c(c1)N=C(N1CCNCC1)c1ccccc1N2 [N-desmethylclozapine, 8-chloro-11-(1-piperazinyl)-5H-dibenzo[b,e][1,4]diazepine] |  | EC50 (M5 muscarinic receptor; R-SAT, ± standard deviation, read-out: pEC50 M5 (converted)): 45.7 nM; blood brain barrier penetration ([1]; concluded from central MAPK activation after s.c. dosing): penetrates the blood brain barrier; MAPK activation in hippocampus ([1]; s.c., dose of 30 mg/kg): Robust activation; phospho-MAPK immunoreactivity in CA1 pyramidal neurons ([1]; s.c., immunohistochemistry, compared to vehicle or clozapine treatment): increased phospho-MAPK immunoreactivity; % Efficacy M1 [2]: 61 ± 5%; pEC50 M1 [3]: 7.01 ± 0.06; EC50 ([4]; pEC50 M1, R-SAT): 63.1 nM and 60.3 nM; Emax ([4]; read-out: % Efficacy M1, R-SAT, relative to full agonist carbachol): 65%; EC50 [6]: 100 nM; Emax ([6]; read-out: % Efficacy M1, PI hydrolysis, relative to full agonist carbachol, ± standard deviation): > 65%; EC50 (M2 muscarinic receptor): 182 nM; EC50 (M3 muscarinic receptor): 129 nM |
| 86 ± 12 | 116 ± 9 | 106 ± 9 | 66 ± 6 | CCCCCCOc1nsnc1C1=CCCN(C)C1 [Xanomeline] |  |  |
